{"source": "patent US11533912B2", "about": "“Use of cinnamate compounds in the control of fungal diseases of crops” (Institute of Plant Protection, Gansu Academy of …, priority 2019, dated 2022)", "type_in_all_cases": "cell-based", "key": {"[1]": {"test_system": "F. oxysporum f. sp. vasinfectum", "assay": "Ex vivo mycelial growth, growth rate method", "details": "mycelial growth, 1 mg/mL"}, "F. oxysporum f. sp. lini": {"test_system": "F. oxysporum f. sp. lini", "assay": "Ex vivo mycelial growth, growth rate method", "details": "mycelial growth, 1 mg/mL"}, "Exserohilum turcicum": {"test_system": "Exserohilum turcicum", "assay": "Ex vivo mycelial growth, growth rate method", "details": "mycelial growth, 1 mg/mL"}, "Phytophthora capsici": {"test_system": "Phytophthora capsici", "assay": "Ex vivo mycelial growth, growth rate method", "details": "mycelial growth, Phytophthora capsici; 1 mg/mL"}, "Pyricularia grisea": {"test_system": "Pyricularia grisea", "assay": "microbe, parasite or virus in culture", "details": "mycelial growth, 1 mg/mL"}, "C. gossypii": {"test_system": "C. gossypii", "assay": "Ex vivo mycelial growth, growth rate method", "details": "mycelial growth, 1 mg/mL"}, "Botrytis cinerea": {"test_system": "Botrytis cinerea", "assay": "Ex vivo mycelial growth, growth rate method", "details": "mycelial growth, 1 mg/mL"}, "Phytophthora infestans": {"test_system": "Phytophthora infestans", "details": "mycelial growth, Phytophthora infestans (second line); 1 mg/mL"}, "F. graminearum": {"test_system": "F. graminearum", "assay": "microbe, parasite or virus in culture", "details": "mycelial growth, F. graminearum (second line); 1 mg/mL"}, "Sclerotinia sclerotiorum": {"test_system": "Sclerotinia sclerotiorum", "assay": "Ex vivo mycelial growth, growth rate method", "details": "mycelial growth, 1 mg/mL"}, "Mycosphaerlla melonis": {"test_system": "Mycosphaerlla melonis", "assay": "Ex vivo mycelial growth, growth rate method", "details": "mycelial growth, 1 mg/mL"}}, "data": [{"smiles": "CO/C=C(/C(=O)OC)c1ccccc1Oc1cc(Oc2ccccc2C#N)ncn1", "note": "[Azoxystrobin, azoxystrobin, reference compound]", "values": [{"measurement": "Inhibition Rate", "setting": "[1]", "result": 66.33, "unit": "%"}, {"measurement": "Inhibition Rate", "setting": "F. oxysporum f. sp. lini", "result": 34.11, "unit": "%"}, {"measurement": "Inhibition Rate", "setting": "Exserohilum turcicum", "result": 27.78, "unit": "%"}, {"measurement": "Inhibition Rate", "setting": "Phytophthora capsici", "result": 25.55, "unit": "%"}, {"measurement": "Inhibition Rate", "setting": "Pyricularia grisea", "result": 48.11, "unit": "%"}, {"measurement": "Inhibition Rate", "setting": "C. gossypii", "result": 40.33, "unit": "%"}, {"measurement": "Inhibition Rate", "setting": "Botrytis cinerea", "result": 51.89, "unit": "%"}, {"measurement": "Inhibition Rate", "setting": "Phytophthora infestans", "result": 100, "unit": "%"}, {"measurement": "Inhibition Rate", "setting": "F. graminearum", "result": 30.78, "unit": "%"}, {"measurement": "Inhibition Rate", "setting": "Sclerotinia sclerotiorum", "result": 51.11, "unit": "%"}, {"measurement": "Inhibition Rate", "setting": "Mycosphaerlla melonis", "result": 56.33, "unit": "%"}]}]}
